Test results taken from US7745492B2, “Carboxamido opioid compounds” (Janssen Pharmaceutical, priority 2004, dated 2010).

Experiments:
[1] = biological target: T1, mu opioid receptor (Rattus norvegicus, UniProt P33535); assay: Rat brain mu opioid receptor binding assay ([3H]DAMGO); conditions: rat forebrain membranes, 25° C.
T1 construct: from tissue; host or cells: rat forebrain membrane (particulate) preparation
Protocol: (§1) Rat Brain Mu and Delta Opioid Receptor Binding Assay
(§2) Male, Wistar rats (150-250 g, VAF, Charles River, Kingston, N.Y.) were killed by cervical dislocation and their brains removed and placed immediately in ice cold Tris HCl buffer (50 mM, pH 7.4). The forebrains were separated from the remainder of the brain by a coronal transection, beginning dorsally at the colliculi and passing ventrally through the midbrain-pontine junction. After dissection, the forebrains were homogenized in Tris buffer in a Teflon®-glass homogenizer. The homogenate was diluted to a concentration of 1 g of forebrain tissue per 100 mL Tris buffer and centrifuged at 39,000×G for 10 min. The pellet was resuspended in the same volume of Tris buffer with several brief pulses from a Polytron homogenizer. This particulate preparation was used for the opioid receptor binding assays. Following incubation with the mu opioid selective peptide ligand [^3H]DAMGO or the delta opioid selective ligand [^3H]DPDPE at 25° C., the tube contents were filtered through Whatman GF/B filter sheets on a Brandel cell harvester. The tubes and filters were rinsed three times with 4 mL of 10 mM HEPES (pH 7.4) and the radioactivity associated with the filter circles determined using Formula 989 scintillation fluid (New England Nuclear, Boston, Mass.) in a scintillation counter.
(§3) The data were used to calculate a Ki value, using GraphPad Prism.

[2] = biological target: T2, delta opioid receptor (Rattus norvegicus, UniProt P33533); assay: Rat brain delta opioid receptor binding assay ([3H]DPDPE); conditions: rat forebrain membranes, 25° C.
T2 construct: from tissue; host or cells: rat forebrain membrane (particulate) preparation
Protocol: as §1
as §2, with “Following incubation with the mu opioid selective peptide ligand [^3H]DAMGO or the delta opioid selective ligand [^3H]DPDPE at 25° C., the tube contents were filtered through Whatman GF/B filter sheets on a Brandel cell harvester.” left out
as §3

[3] = biological target: T3, Human mu opioid (Homo sapiens, UniProt P35372); assay: [35S]GTPγS binding assay in human mu opioid-CHO cell membranes; type: biochemical
T3 construct: host or cells: CHO cell membranes
Protocol: [^35S]GTPγS Binding Assay in Human mu opioid-CHO Cell Membranes
Human mu-CHO cell membranes were purchased from Receptor Biology, Inc. (Baltimore, Md.). About 10 mg/ml of membrane protein was suspended in 10 mM TRIS-HCl, pH 7.2, 2 mM EDTA, 10% sucrose.
(§4) Membranes were maintained at 4-8° C. 1 ml of membranes was added into 15 ml cold assay buffer, containing 50 mM HEPES, pH 7.6, 5 mM MgCl2, 100 mM NaCl, 1 mM DTT and 1 mM EDTA. The membrane suspension was homogenized with a Polytron 2 times and centrifuged at 3000 rpm for 10 min. The supernatant was then centrifuged at 18,000 rpm for 20 min. The pellet was resuspended in 10 ml assay buffer with a Polytron.
The pellet membranes (20 μg/ml) were preincubated with Scintillation Proximity Assay beads (SPA, 10 mg/ml) at 25° C. for 45 min in the assay buffer. The SPA beads (5 mg/ml) coupled with membranes (10 μg/ml) were then incubated with 0.5 nM [^35S]GTPγS in the same HEPES buffer containing 50 μM GDP in total volume of 200 μl. A range of concentrations of receptor agonists were used to stimulate [^35S]GTPγS binding. The basal binding was tested in the absence of agonist and non-specific binding was tested in the presence of 10 μM unlabeled GTPγS. Radioactivity was quantified on a Packard TopCount.
Data were Calculated as Follows: % of basal=(stimulated−non-specific)*100/(basal−non specific) % Inhibition=(% Basal of 1 μM DAMGO−% Basal of compound)*100/(% Basal of 1 μM DAMGO−100)
(§5) EC50 values were calculated using the Prism program.

[4] = tested on: Male Sprague Dawley rats; assay: Spinal nerve ligation (SNL) model of neuropathic pain, mechanical allodynia (Von Frey); type: in vivo; conditions: rat
Protocol: Spinal Nerve Ligation (SNL) Model of Neuropathic Pain
Male Sprague Dawley rats weighing 145 to 165 g (approximately 6 weeks of age) were obtained from Harlan (Indianapolis, Ind.). Food and water were provided ad lib and a 12 h light and 12 h dark cycle were maintained. Animals were group housed under specific pathogen-free, barrier maintained environment and were allowed to acclimate for no less than 1 week. Following surgery, animals were housed individually in solid bottom polycarbonate cages with automatic watering devices at 22° C. and a relative humidity of 60%. All animals received Harland Tekland Diet # 8604.
Anesthesia was induced using isoflurane (IsoVet™) inhalant in an induction chamber (3-5% in 2 L/min of O2). Once recumbent, the animal was removed and placed into a nose cone which delivered inhalant isoflurane (0.5-2.5% at 2 L/min Of O2). The dorsal pelvic area was shaved and scrubbed aseptically with chlorhexidine scrub, 70% alcohol, and a 5% chlorhexidine solution. The animal was held in ventral recumbency on a heating pad, and the surgical procedure described by Kim and Chung (1992) was performed. The left paraspinal muscles were separated from the spinous processes at the level of Lumbar 4 to Sacral 2 (L4-S2). Once the musculature was retracted, the L6 transverse process was removed using a small rongeur. L4 and L5 spinal nerves could then be visualized. L5 was then isolated and ligated using 6-0 silk suture material. Warm saline and a dose of long-acting antibiotic was administered immediately post-op before recovery form anesthesia.
At least one week following surgery, animals were individually placed in a Lucite testing chamber with a wire mesh bottom. Mechanical (tactile) allodynia was measured by recording the pressure at which the affected paw was withdrawn from graded stimuli (Von Frey hairs ranging from 4.0 to 148.1 mN equivalent to 0.25 to 15 g of pressure) applied to the plantar surface of the paw (between the footpads) according to the procedure of Chaplan et. al (1994) in order to calculate paw withdrawal threshold (PWT). Normal rats can withstand at least 15 g of pressure without responding. SNL rats can respond to as little as 0.25 g of pressure. Rats were included in this study only if their PWT was below 4.0 g.
Animals were used for compound testing between 2 weeks and 8 weeks post-operatively. Animals were always pre-tested for baseline withdrawal threshold on the day of testing. Following a 16 h fast, PWT was evaluated at 30 min, 1 h, 2 h, and 4 h post-dosing. Dose-response studies were conducted at the time of peak effect. Studies were conducted in a blinded manner.
Data were normalized and results were presented as % MPE (maximum possible effect) of the drug.

[5] = biological target: T4, Delta opioid (Mus musculus, UniProt P32300); assay: [35S]GTPγS binding assay in NG108-15 cell membrane; type: biochemical; conditions: NG108-15 cell membranes
T4 construct: NG108-15 cell membranes were purchased from Applied Cell Sciences (Rockville, Md.); host or cells: NG108-15 cell membranes
Protocol: [^35S]GTPγS Binding Assay in NG108-15 Cell Membrane
NG108-15 cell membranes were purchased from Applied Cell Sciences (Rockville, Md.). An 8 mg/mL portion of membrane protein was suspended in 10 mM TRIS-HCl, pH 7.2, 2 mM EDTA, 10% sucrose.
as §4, with “C. A” for “C.”, “1 mL portion” for “1 ml”, “into 10 mL” for “into 15 ml”, “mM Tris,” for “mM HEPES,”, “mM EGTA.” for “mM EDTA.”, “buffer using” for “buffer with”
The pellet membranes (75 μg/ml) were preincubated with SPA beads (10 mg/ml) at 25° C. for 45 min in the assay buffer. The SPA beads (5 mg/ml) coupled with membranes (37.5 μg/ml) were then incubated with 0.1 nM [^35S] GTPγS in the same Tris buffer containing 100 μM GDP in total volume of 200 μl. A range of concentrations of receptor agonists was used to stimulate [^35S] GTPγS binding. The basal binding was tested in the absence of agonist and non-specific binding was tested in the presence of 10 μM unlabeled GTPγS. The radioactivity was quantified on a Packard TopCount.
Calculations were performed as follows: % of Basal=(stimulated−non specific)*100/(basal−non specific).
as §5

[6] = tested on: male Sprague-Dawley rats; assay: Rat CFA radiant heat model of inflammatory pain; type: in vivo; conditions: dosed orally 24 h after intraplantar CFA
Protocol: Rat CFA Radiant Heat Model of Inflammatory Pain
Intraplantar injection of Complete Freund's Adjuvant (CFA) in rodents results in a strong, long-lasting inflammatory reaction, characterized by a chronic and pronounced hyperalgesia to both thermal and mechanical stimuli. These effects peak between 24-72 h following injection, and can last for several days to a few weeks. To assess the ability of compounds to reverse thermal hyperalgesia, male Sprague-Dawley rats (200-350 g) were given an intraplantar injection of CFA (1:1 CFA:saline, 100 μL) into their left hindpaw. Following a 24-h incubation period, response latencies on the Radiant Heat Paw Stimulator (RH) were obtained and compared to baseline (pre-CFA) latencies. The RH device automatically registered lifting of the paw from the surface of the glass. […] Following the post CFA latency assessment, rats were dosed orally (2.5 mL/kg) with test compound or vehicle (hydroxypropylmethylcellulose, HPMC). Percent reversal of hyperalgesia was calculated for each animal as (Treatment Response−postCFA Response)/(preCFA Response−postCFA Response)×100. Therefore, a return to normal pre-CFA thresholds was defined as 100% efficacy, whereas no change from post-CFA thresholds was 0% efficacy. Average % reversal of hyperalgesia was then calculated for each treatment group (n=6-8 rats/group). […]

[7] = tested on: spinal nerve ligated rats; assay: Investigation of tolerance development to antiallodynic effect; type: in vivo, rat; conditions: dosing for five days, evaluated days one and five
Protocol: Investigation of Tolerance Development
The development of tolerance to the analgesic effect of mu opioid compounds is well known. The development of tolerance to the antiallodynic effect of the Compound 3 was investigated by administering the compound to spinal nerve ligated rats for five days. The antiallodynic effect of the compound was evaluated on days one and five.

T1 sequence (P33535 whole entry): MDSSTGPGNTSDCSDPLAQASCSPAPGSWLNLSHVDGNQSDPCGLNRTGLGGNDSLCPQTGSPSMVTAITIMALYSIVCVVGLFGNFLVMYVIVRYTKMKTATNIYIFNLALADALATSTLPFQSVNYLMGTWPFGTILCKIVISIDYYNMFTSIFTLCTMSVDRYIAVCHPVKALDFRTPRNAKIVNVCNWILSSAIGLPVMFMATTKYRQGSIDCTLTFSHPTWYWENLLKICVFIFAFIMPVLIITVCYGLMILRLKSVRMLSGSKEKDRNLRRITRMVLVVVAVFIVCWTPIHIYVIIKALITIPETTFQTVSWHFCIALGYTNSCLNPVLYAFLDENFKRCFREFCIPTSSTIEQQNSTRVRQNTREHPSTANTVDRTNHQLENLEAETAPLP
T3 sequence (P35372 whole entry): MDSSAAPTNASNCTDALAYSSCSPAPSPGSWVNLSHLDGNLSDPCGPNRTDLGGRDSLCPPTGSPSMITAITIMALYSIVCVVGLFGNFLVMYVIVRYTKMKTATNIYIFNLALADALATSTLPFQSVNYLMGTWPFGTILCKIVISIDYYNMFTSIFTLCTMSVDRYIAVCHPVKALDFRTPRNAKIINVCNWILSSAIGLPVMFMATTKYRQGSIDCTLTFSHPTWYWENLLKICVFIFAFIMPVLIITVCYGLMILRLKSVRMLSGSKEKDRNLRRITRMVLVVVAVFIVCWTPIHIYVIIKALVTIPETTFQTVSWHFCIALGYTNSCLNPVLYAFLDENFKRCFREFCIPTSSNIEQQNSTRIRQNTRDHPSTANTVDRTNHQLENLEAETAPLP
T2 sequence (P33533 whole entry): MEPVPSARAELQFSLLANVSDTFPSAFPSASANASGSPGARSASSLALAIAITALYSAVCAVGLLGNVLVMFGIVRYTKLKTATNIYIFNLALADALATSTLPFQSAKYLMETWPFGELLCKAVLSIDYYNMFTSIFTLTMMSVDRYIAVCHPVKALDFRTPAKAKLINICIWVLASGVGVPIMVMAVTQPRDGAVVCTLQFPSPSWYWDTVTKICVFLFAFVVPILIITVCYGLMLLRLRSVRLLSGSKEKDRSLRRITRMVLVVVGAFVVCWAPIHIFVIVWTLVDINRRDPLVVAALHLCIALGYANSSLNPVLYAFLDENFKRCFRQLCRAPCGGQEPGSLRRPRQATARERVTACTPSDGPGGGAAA
T4 sequence (P32300 whole entry): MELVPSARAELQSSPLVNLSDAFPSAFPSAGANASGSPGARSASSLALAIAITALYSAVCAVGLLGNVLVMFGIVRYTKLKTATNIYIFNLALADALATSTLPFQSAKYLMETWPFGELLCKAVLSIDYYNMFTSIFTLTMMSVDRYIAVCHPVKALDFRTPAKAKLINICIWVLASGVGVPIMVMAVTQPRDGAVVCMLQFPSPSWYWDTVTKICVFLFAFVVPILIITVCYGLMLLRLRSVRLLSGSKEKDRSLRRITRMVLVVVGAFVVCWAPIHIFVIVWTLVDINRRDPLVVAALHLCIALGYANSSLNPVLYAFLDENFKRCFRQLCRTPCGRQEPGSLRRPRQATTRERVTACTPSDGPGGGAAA

Compound | Ki [1] [µM] | Ki [2] [µM] | other results
CN(C)C[C@@H]1CCCC[C@]1(O)c1cccc(C(N)=O)c1 (racemic) [Cpd 1, 3-[(1-RS, 2-SR)-2-[(Dimethylamino)methyl]-1-hydroxycyclohexyl]-benzamide] | 1.39 | 9.87 | –
CN(C)C[C@H]1CCCC[C@]1(O)c1cccc(C(N)=O)c1 (racemic) [Cpd 2, 3-[(1-RS, 2-RS)-[(2-Dimethylamino)methyl]-1-hydroxycyclohexyl]-benzamide] | 0.0294 | 2.47 | Mu opioid GTPγS (result in words) [3]: Agonist; MPE in spinal nerve ligation model ([4]; 3 mg/kg, i.v.): 87%; MPE in spinal nerve ligation model ([4]; 30 mg/kg, p.o.): 88%; EC50 [5]: 5.63 µM
CCN(CC)C(=O)c1cccc([C@@]2(O)CCCC[C@@H]2CN(C)C)c1 (racemic) [Cpd 5, 3-[(1-RS, 2-RS)-2-[(dimethylamino)methyl]-1-hydroxycyclohexyl]-N,N-diethyl-benzamide] | > 10 | > 10 | –
CN(C)C[C@H]1CCCC[C@]1(O)c1cccc(C(=O)NC2CC2)c1 (racemic) [Cpd 6, N-Cyclopropyl-3-[(1-RS, 2-RS)-2-[(dimethylamino)methyl]-1-hydroxycyclohexyl]-benzamide] | 5.19 | > 10 | –
CNC(=O)c1cccc([C@@]2(O)CCCC[C@@H]2CN(C)C)c1 (racemic) [Cpd 7, 3-[(1-RS, 2-RS)-2-[(Dimethylamino)methyl]-1-hydroxycyclohexyl]-N-methylbenzamide] | 2.12 | > 10 | –
CN(C)C[C@@H]1CCCC[C@@]1(O)c1cccc(C(N)=O)c1 (single isomer, unassigned) [Cpd 4] | 0.828 | > 10 | EC50 [3]: 4.82 µM; Mu opioid GTPγS relative efficacy [3]: 41%; Antihyperalgesic effect (reversal of thermal hyperalgesia) [6]: antihyperalgesic; MPE in spinal nerve ligation model ([4]; 30 mg/kg, p.o.): 39%; MPE in spinal nerve ligation model ([4]; 100 mg/kg, p.o.): 95%
CN1CC[C@]23c4c5ccc(O)c4O[C@H]2[C@@H](O)C=C[C@H]3[C@H]1C5 [morphine, reference compound] | – | – | Development of tolerance to the antiallodynic effect [7]: little or no antiallodynic effect remaining after five days of dosing
